Results taken from patent publication EP1433789A1, “Pyrrolopyrazines and their use as selective apoptosis inducers” (Aponetics AG, priority 2002, dated 2004).

Columns and labels:
Type in all cases: cell-based, human
HeLa = assay: Caspase dependencies (Hoechst 33342 readout with zVAD / zFA); design: key: 0: no effect; 1: weak effect; 2: strong effect
Experimental: (§1) This assay is performed in 96 well tissue culture plates. Appropriate number of cells (adherent cells: 3 - 5*10^3, suspension cells: 8 - 10*10^3) are being seeded out in 80 µl complete medium. Adherent cells are incubated for 24 h for proper spreading out before addition of test compounds while suspension cells are immediately treated with test compounds after seeding out. The test compounds are added in 20 µl complete medium containing max 5% DMSO. The final compound concentrations in the assays are 10 µM, 3 µM,1 µM and 0.3 µM, respectively. After 24 h or 48 h incubation at culture conditions, 10 µl medium containing Hoechst 33342 dye (Sigma B-2261) at 2-5 µg/ml are added to each well. The assay plates are then further incubated for 30 minutes and subsequently analyzed with a standard inverted fluorescence microscope. The readout allows the determination of the fraction of apoptotic nuclei as well as other morphological criteria specific for apoptosis as a function of the treatment. The following scores are used: 0 relating to no activity, 1 relating to weak activity comprising less than 50% of the cells and score 2 relating to strong activity comprising more than 50% of the cells.
(§2) Caspase dependencies are being evaluated by combining the compound treatment with the pan-caspase inhibitor zVAD or its control peptide zFA (ICN Pharmaceuticals # FK009 and FK029, respectively). Both peptides are being used at 20 µM concentration. In case of caspase dependencies a clear inhibition of the specific readout in all apoptosis tests should be detected. By comparing the readout of zVAD and zFA treated samples with the compound control it is possible to detect caspase resp. cystein proteinase dependencies. In case of inhibition by zVAD but not by zFA a clear caspase dependency is obvious. An inhibition by zVAD as well as by zFA points towards the involvement of cystein proteinases in the apoptotic cascade. […]

K562 = assay: as above; design: key: 0: no effect; 1: weak effect; 2: strong effect
Experimental: as §1, §2

KB = assay: as above; design: key: 0: no effect; 1: weak effect; 2: strong effect
Experimental: as §1, §2

Jurkat = assay: as above; design: key: 0: no effect; 1: weak effect; 2: strong effect
Experimental: as §1, §2

PC-3 = assay: Hoechst 33342 nuclear staining (Table 3); design: key: 0 relating to no activity; 1 relating to weak activity comprising less than 50% of the cells; score 2 relating to strong activity comprising more than 50% of the cells
In short: (§3)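 Adherent cells (3-5×10^3, pre-spread 24 h) or suspension cells (8-10×10^3) treated with compounds at 10, 3, 1 and 0.3 µM for 24 or 48 h, then Hoechst 33342 stained for 30 min. Apoptotic nuclear morphology scored by fluorescence microscopy: 0 none, 1 weak (<50% cells), 2 strong (>50% cells).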

H9 = assay: Hoechst 33342 nuclear staining (Table 3); design: key: 0 relating to no activity; 1 relating to weak activity comprising less than 50% of the cells; score 2 relating to strong activity comprising more than 50% of the cells
In short: as §3

CC1(C)Cc2ccccc2-c2c(Br)c3nc4ccccc4nc3n21 [No. 2, 13-Bromo-6,6-dimethyl-5,6-dihydro-6a,7,12-triaza-dibenzo[a,h]fluorene]
nuclear fragmentation visualized by Hoechst 33342 staining (HeLa; 24h, conc 10, no peptide): 2 | nuclear fragmentation visualized by Hoechst 33342 staining (HeLa; 24h, conc 10, with zFA 20 µM): 2 | nuclear fragmentation visualized by Hoechst 33342 staining (HeLa; 24h, conc 10, with zVAD 20 µM): 1 | nuclear fragmentation visualized by Hoechst 33342 staining (HeLa; 48h, conc 10, no peptide): 2 | nuclear fragmentation visualized by Hoechst 33342 staining (HeLa; 48h, conc 10, with zFA 20 µM): 2 | nuclear fragmentation visualized by Hoechst 33342 staining (HeLa; 48h, conc 10, with zVAD 20 µM): 2 | nuclear fragmentation visualized by Hoechst 33342 staining (K562; K562, 24h, conc 10, no peptide): 2 | nuclear fragmentation visualized by Hoechst 33342 staining (K562; K562, 24h, conc 10, with zFA 20 µM): 2 | nuclear fragmentation visualized by Hoechst 33342 staining (K562; K562, 24h, conc 10, with zVAD 20 µM): 2 | nuclear fragmentation visualized by Hoechst 33342 staining (K562; K562, 48h, conc 10, no peptide): 2 | nuclear fragmentation visualized by Hoechst 33342 staining (K562; K562, 48h, conc 10, with zFA 20 µM): 2 | nuclear fragmentation visualized by Hoechst 33342 staining (K562; K562, 48h, conc 10, with zVAD 20 µM): 2 | nuclear fragmentation visualized by Hoechst 33342 staining (KB; 24h, conc 10, no peptide): 2 | nuclear fragmentation visualized by Hoechst 33342 staining (KB; 24h, conc 10, with zFA 20 µM): 1 | nuclear fragmentation visualized by Hoechst 33342 staining (KB; 24h, conc 10, with zVAD 20 µM): 1 | nuclear fragmentation visualized by Hoechst 33342 staining (KB; 48h, conc 10, no peptide): 2 | nuclear fragmentation visualized by Hoechst 33342 staining (KB; 48h, conc 10, with zFA 20 µM): 2 | nuclear fragmentation visualized by Hoechst 33342 staining (KB; 48h, conc 10, with zVAD 20 µM): 2 | nuclear fragmentation visualized by Hoechst 33342 staining (Jurkat; 24h, conc 3, no peptide): 2 | nuclear fragmentation visualized by Hoechst 33342 staining (Jurkat; 24h, conc 3, with zFA 20 µM): 2 | nuclear fragmentation visualized by Hoechst 33342 staining (Jurkat; 24h, conc 3, with zVAD 20 µM): 2 | nuclear fragmentation visualized by Hoechst 33342 staining (Jurkat; 48h, conc 3, no peptide): 2 | nuclear fragmentation visualized by Hoechst 33342 staining (Jurkat; 48h, conc 3, with zFA 20 µM): 2 | nuclear fragmentation visualized by Hoechst 33342 staining (Jurkat; 48h, conc 3, with zVAD 20 µM): 2 | Hoechst 33342 nuclear staining (fraction of apoptotic nuclei), score (PC-3; PC-3, 24h, 0.3 µM): 0 | Hoechst 33342 nuclear staining (fraction of apoptotic nuclei), score (PC-3; PC-3, 24h, 1 µM): 0 | Hoechst 33342 nuclear staining (fraction of apoptotic nuclei), score (PC-3; PC-3, 24h, 3 µM): 0 | Hoechst 33342 nuclear staining (fraction of apoptotic nuclei), score (PC-3; PC-3, 24h, 10 µM): 0 | Hoechst 33342 nuclear staining (fraction of apoptotic nuclei), score (PC-3; PC-3, 48h, 0.3 µM): 0 | Hoechst 33342 nuclear staining (fraction of apoptotic nuclei), score (PC-3; PC-3, 48h, 1 µM): 0 | Hoechst 33342 nuclear staining (fraction of apoptotic nuclei), score (PC-3; PC-3, 48h, 3 µM): 0 | Hoechst 33342 nuclear staining (fraction of apoptotic nuclei), score (PC-3; PC-3, 48h, 10 µM): 2 (score 2 relating to strong activity comprising more than 50% of the cells) | Hoechst 33342 nuclear staining (fraction of apoptotic nuclei), score (H9; H9, 24h, 0.3 µM): 0 | Hoechst 33342 nuclear staining (fraction of apoptotic nuclei), score (H9; H9, 24h, 1 µM): 0 | Hoechst 33342 nuclear staining (fraction of apoptotic nuclei), score (H9; H9, 24h, 3 µM): 0 | Hoechst 33342 nuclear staining (fraction of apoptotic nuclei), score (H9; H9, 24h, 10 µM): 0 | Hoechst 33342 nuclear staining (fraction of apoptotic nuclei), score (H9; H9, 48h, 0.3 µM): 0 | Hoechst 33342 nuclear staining (fraction of apoptotic nuclei), score (H9; H9, 48h, 1 µM): 0 | Hoechst 33342 nuclear staining (fraction of apoptotic nuclei), score (H9; H9, 48h, 3 µM): 0 | Hoechst 33342 nuclear staining (fraction of apoptotic nuclei), score (H9; H9, 48h, 10 µM): 0
